According to ChEMBL document CHEMBL1130300, “Antiinflammatory effects of escins Ia, Ib, IIa, and IIb from horse chestnut, the seeds of Aesculus hippocastanum L” (Bioorg Med Chem Lett, 1997):
Calls of active or inactive are those of the source. The rule behind the calls is not given here.

Assays:
Type in all cases: functional, organism-based
Mus musculus [1] = assay: Compound at 25-200 mg/kg, p.o., dose-dependently inhibited the scratching behavior induced by subcutaneous injection […]; inhibited
Mus musculus [2] = assay: Compound at 50-200 mg/kg, p.o, dose-dependently inhibited the increase of vascular permeability induced by intraperitoneal injection of acetic acid in mice; inhibited
Rattus norvegicus [3] = assay: Compound was tested for dose-dependent inhibition in increase of vascular permeability induced by intracutaneous injection of serotonin in rat at 50-200 mg/kg, p.o; Inhibited
Rattus norvegicus [4] = assay: Compound at 200 mg/kg peroral dose in rat showed significant suppression at second phase; suppressed; parameters: dose 200 mg/kg
Rattus norvegicus [5] = assay: Compound at 200 mg/kg, p.o., also significantly inhibited the hind paw edema induced by carrageenan at first phase in rat; inhibited; parameters: dose 200 mg/kg
Rattus norvegicus [6] = assay: Compound at 50-200 mg/kg, p.o, dose-dependently inhibited the increase of vascular permeability induced by intracutaneous injection of histamine in rat; inhibited
Rattus norvegicus [7] = assay: Compound was tested for dose-dependent inhibition in increase of vascular permeability induced by intracutaneous injection of serotonin in rat at 200 mg/kg, p.o.; NI means No inhibition; parameters: dose 200 mg/kg
Rattus norvegicus [8] = assay: Compound at 200 mg/kg peroral dose in rat showed tendency to inhibit the second phase; inhibited; parameters: dose 200 mg/kg

Row | SMILES | Activity (Mus musculus [1]) | Activity (Mus musculus [2]) | Activity (Rattus norvegicus [3]) | Activity (Rattus norvegicus [4]) | Activity (Rattus norvegicus [5]) | Activity (Rattus norvegicus [6]) | Activity (Rattus norvegicus [7]) | Activity (Rattus norvegicus [8])
1 | C/C=C(\C)C(=O)O[C@H]1[C@H](OC(C)=O)[C@@]2(CO)C(CC1(C)C)C1=CCC3[C@@]4(C)CC[C@H](O[C@@H]5O[C@H](C(=O)O)[C@@H](O[C@@H]6O[C@H](CO)[C@@H](O)[C@H](O)[C@H]6O)[C@H](O)[C@H]5O[C@@H]5O[C@H](CO)[C@@H](O)[C@H](O)[C@H]5O)[C@](C)(CO)C4CC[C@@]3(C)[C@]1(C)C[C@H]2O (stereo not given in full) | inhibited | inhibited | inhibited | inhibited | inhibited | inhibited | – | –
2 | CC1(C)CC2C3=CCC4[C@@]5(C)CC[C@H](O[C@@H]6O[C@H](C(=O)O)[C@@H](O[C@@H]7O[C@H](CO)[C@@H](O)[C@H](O)[C@H]7O)[C@H](O)[C@H]6O[C@@H]6OC[C@@H](O)[C@H](O)[C@H]6O)[C@](C)(CO)C5CC[C@@]4(C)[C@]3(C)C[C@@H](O)[C@@]2(CO)[C@@H](O)[C@@H]1O (stereo not given in full) | – | – | – | – | – | – | inactive | –
3 | C/C=C(\C)C(=O)O[C@H]1[C@H](OC(C)=O)[C@@]2(CO)C(CC1(C)C)C1=CCC3[C@@]4(C)CC[C@H](O[C@@H]5O[C@H](C(=O)O)[C@@H](O[C@@H]6O[C@H](CO)[C@@H](O)[C@H](O)[C@H]6O)[C@H](O)[C@H]5O[C@@H]5OC[C@@H](O)[C@H](O)[C@H]5O)[C@](C)(CO)C4CC[C@@]3(C)[C@]1(C)C[C@H]2O (stereo not given in full) | inhibited | inhibited | inhibited | – | inhibited | inhibited | – | inhibited
4 | CC1(C)CC2C3=CCC4[C@@]5(C)CC[C@H](O[C@@H]6O[C@H](C(=O)O)[C@@H](O[C@@H]7O[C@H](CO)[C@@H](O)[C@H](O)[C@H]7O)[C@H](O)[C@H]6O[C@@H]6O[C@H](CO)[C@@H](O)[C@H](O)[C@H]6O)[C@](C)(CO)C5CC[C@@]4(C)[C@]3(C)C[C@@H](O)[C@@]2(CO)[C@@H](O)[C@@H]1O (stereo not given in full) | – | – | – | – | – | – | inactive | –
5 | C/C=C(/C)C(=O)O[C@H]1[C@H](OC(C)=O)[C@@]2(CO)C(CC1(C)C)C1=CCC3[C@@]4(C)CC[C@H](O[C@@H]5O[C@H](C(=O)O)[C@@H](O[C@@H]6O[C@H](CO)[C@@H](O)[C@H](O)[C@H]6O)[C@H](O)[C@H]5O[C@@H]5OC[C@@H](O)[C@H](O)[C@H]5O)[C@](C)(CO)C4CC[C@@]3(C)[C@]1(C)C[C@H]2O (stereo not given in full) | inhibited | inhibited | inhibited | – | inhibited | inhibited | – | inhibited
